What is called pIC50 is −log10 of the IC50, conventionally taken in molar units.

pIC50: −log10 of the molar value.

The target in this experiment is recombinant human AMCase (Homo sapiens, UniProt Q9BZP6). As to the kind of experiment: Human AMCase Activity Assay. The experiment is classed as biochemical. The following applies: recombinant hAMCase, 4-methylumbelliferyl B-D-N,N′-diacetylchitobioside substrate, citrate buffer pH 5.2, 37° C., 60 minutes. As for the experimental part: Human AMCase Activity Assay
recombinant human AMCase, sequence (Q9BZP6 22-476): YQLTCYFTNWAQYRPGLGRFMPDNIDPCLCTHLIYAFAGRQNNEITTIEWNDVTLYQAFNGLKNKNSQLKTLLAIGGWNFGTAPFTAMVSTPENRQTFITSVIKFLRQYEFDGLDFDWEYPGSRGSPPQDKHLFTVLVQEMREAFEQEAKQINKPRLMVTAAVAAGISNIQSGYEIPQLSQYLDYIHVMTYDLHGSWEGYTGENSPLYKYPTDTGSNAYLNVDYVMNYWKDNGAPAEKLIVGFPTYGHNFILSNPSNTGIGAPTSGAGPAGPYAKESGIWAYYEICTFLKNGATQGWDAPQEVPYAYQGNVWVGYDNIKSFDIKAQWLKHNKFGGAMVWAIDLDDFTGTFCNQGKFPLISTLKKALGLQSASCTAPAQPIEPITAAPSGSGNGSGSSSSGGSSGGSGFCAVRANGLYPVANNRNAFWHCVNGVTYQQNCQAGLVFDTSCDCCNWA
The assay was run in the 96-well plate format, each reaction in the total volume of 100 μL. 4-Methylumbelliferyl B-D-N,N′-diacetylchitobioside hydrate was used as a substrate for the enzyme. Upon hydrolysis by AMCase, the substrate releases 4-methylumbelliferyl (4MU) that, when ionized in basic pH, emits fluorescence at 460 nm.
Briefly, 40 μL of a substrate was added to each well, followed by 10 μL of compound dilution and 50 μL of hAMCase recombinant enzyme solution. […] The fluorescence of the reaction product was measured in Perkin Elmer Envision fluorescent plate reader at an excitation wavelength of 355 nm.
Consider `Nc1n[nH]c(N2CCC(N(CCC(=O)O)CCc3ccc(Cl)cc3)CC2)n1` [Example 26, 3-((1-(3-amino-1H-1,2,4-triazol-5-yl)piperidin-4-yl)(4-chlorophenethyl)-amino)propanoic acid], for which the pIC50 is 5.00 to 6.00. In the case of `Nc1n[nH]c(N2CCC(N(CCc3ccc(Br)cc3)Cc3cccc(C(=O)O)c3)CC2)n1` [Example 3, 3-(((1-(3-amino-1H-1,2,4-triazol-5-yl)piperidin-4-yl)(4-bromophenethyl)amino)-methyl)benzoic acid], the negative-log IC50 (pIC50) is 8.00 to 9.00. On to `Nc1n[nH]c(N2CCC(N(CCNC(=O)c3ccccc3)CCc3ccc(Cl)cc3)CC2)n1` [Example 9, N-(2-((1-(3-amino-1H-1,2,4-triazol-5-yl)piperidin-4-yl)(4-chlorophenethyl)amino)-ethyl)benzamide], for which the pIC50 was 7.00 to 8.00. In the case of `Nc1n[nH]c(N2CCC(N(CCc3ccc(Cl)cc3)Cc3nnn[nH]3)CC2)n1` [Example 43, N-((1H-tetrazol-5-yl)methyl)-1-(3-amino-1H-1,2,4-triazol-5-yl)-N-(4-chlorophenethyl)piperidin-4-amine], the pIC50 was 7.00 to 8.00.

For the molecule `CC(=O)NS(=O)(=O)c1ccc(CN(CCc2ccc(Br)cc2)C2CCN(c3nc(N)n[nH]3)CC2)cc1` [Example 16, N-((4-(((1-(3-amino-1H-1,2,4-triazol-5-yl)piperidin-4-yl)(4-bromophenethyl)-amino)methyl)phenyl)sulfonyl)acetamide], the pIC50 was 8.00 to 9.00. Turning to `Nc1n[nH]c(N2CCC(N(CCc3ccc(Cl)cc3)Cc3ccc(Cl)c(C(=O)O)c3)CC2)n1` [Example 7, 5-(((1-(3-amino-1H-1,2,4-triazol-5-yl)piperidin-4-yl)(4-chlorophenethyl)amino)-methyl)-2-chlorobenzoic acid], the pIC50 is 8.00 to 9.00. As to `Nc1n[nH]c(N2CCC(N(CCc3ccc(Cl)cc3)CC(C(=O)O)c3ccc(Cl)cc3)CC2)n1` (stereo not shown) [Example 29, 3-((1-(3-amino-1H-1,2,4-triazol-5-yl)piperidin-4-yl)(4-chlorophenethyl)amino)-2-(4-chlorophenyl)propanoic acid], the pIC50 was 7.00 to 8.00. For the molecule `CC(C)NC(=O)NCCN(CCc1ccc(Cl)cc1)C1CCN(c2nc(N)n[nH]2)CC1` [Example 12, 1-(2-((1-(3-amino-1H-1,2,4-triazol-5-yl)piperidin-4-yl)(4-chlorophenethyl)-amino)ethyl)-3-isopropylurea], the pIC50 is 6.00 to 7.00.

As to `CC(=O)NS(=O)(=O)c1cccc(CN(CCc2ccc(Br)cc2)C2CCN(c3nc(N)n[nH]3)CC2)c1` [Example 18, N-((3-(((1-(3-amino-1H-1,2,4-triazol-5-yl)piperidin-4-yl)(4-bromophenethyl)-amino)methyl)phenyl)sulfonyl)acetamide], the pIC50 is 8.00 to 9.00. Take `CS(=O)(=O)Nc1ccccc1CN(CCc1ccc(Cl)cc1)C1CCN(c2nc(N)n[nH]2)CC1` [Example 31, N-(2-(((1-(3-amino-1H-1,2,4-triazol-5-yl)piperidin-4-yl)(4-chlorophenethyl)-amino)methyl)phenyl)methanesulfonamide]: the pIC50 is 7.00 to 8.00. Turning to `CC(C)NC(=O)CN(CCc1ccc(Cl)cc1)C1CCN(c2nc(N)n[nH]2)CC1` [Example 22, 2-((1-(3-amino-1H-1,2,4-triazol-5-yl)piperidin-4-yl)(4-chlorophenethyl)amino)-N-isopropylacetamide], the pIC50 was 6.00 to 7.00. Regarding `CS(=O)(=O)NC(=O)c1cccc(CN(CCc2ccc(Cl)cc2)C2CCN(c3nc(N)n[nH]3)CC2)c1` [Example 40, 3-(((1-(3-amino-1H-1,2,4-triazol-5-yl)piperidin-4-yl)(4-chlorophenethyl)amino)-methyl)-N-(methylsulfonyl)benzamide], the pIC50 is 8.00 to 9.00.

Regarding `Nc1n[nH]c(N2CCC(N(CCc3ccc(Br)cc3)Cc3ccc(C(=O)O)cc3)CC2)n1` [Example 4, 4-(((1-(3-amino-1H-1,2,4-triazol-5-yl)piperidin-4-yl)(4-bromophenethyl)-amino)methyl)benzoic acid], the pIC50 is 8.00 to 9.00.
